How the values were obtained:
Type in all cases: functional, cell-based
A549 = assay: Antimigratory activity against human A549 cells after 24 hrs by crystal violet staining based inverted microscopic method
B16 [1] = assay: Antimigratory activity against mouse B16 cells assessed as decrease in TGFbeta mRNA level by SYBR staining based real-time qPCR assay
B16 [2] = assay: Antimigratory activity against mouse B16 cells after 24 hrs by crystal violet staining based inverted microscopic method
B16 [3] = assay: Antimigratory activity against mouse B16 cells assessed as decrease in TNFalpha mRNA level by SYBR staining based real-time qPCR assay
B16 [4] = assay: Antimigratory activity against mouse B16 cells assessed as inhibition of MMP2 mRNA level after 24 hrs by SYBR staining based real-time qPCR assay; settings: B16, 24 h
B16 [5] = assay: Antimigratory activity against mouse B16 cells assessed as decrease in IL-6 mRNA level by SYBR staining based real-time qPCR assay
B16 [6] = assay: Antimigratory activity against mouse B16 cells assessed as inhibition of VEGF mRNA level after 24 hrs by SYBR staining based real-time qPCR assay; settings: B16, 24 h
B16 [7] = assay: Antimigratory activity against mouse B16 cells assessed as inhibition of MMP9 mRNA level after 24 hrs by SYBR staining based real-time qPCR assay; settings: B16, 24 h
B16 [8] = assay: Antimigratory activity against mouse B16 cells assessed as decrease in IL-1beta mRNA level by SYBR staining based real-time qPCR assay

IC50 (B16 [4]) [µM] | IC50 (B16 [6]) [µM] | IC50 (B16 [7]) [µM] | SMILES | Activity (A549) | Activity (B16 [1]) | Activity (B16 [2]) | Activity (B16 [3]) | Activity (B16 [5]) | Activity (B16 [8])
6.6 | 8.4 | 5.3 | C=C[C@H]1CC[C@H]2[C@@H]3CC[C@H]4CC(=O)/C(=C5\NCCc6nc[nH]c65)C(=O)[C@]4(C)[C@H]3CC[C@]12C | Dose-dependent effect | Dose-dependent effect | Dose-dependent effect | Dose-dependent effect | Dose-dependent effect | Dose-dependent effect
5.8 | 7.6 | 12.4 | C=C[C@H]1CC[C@H]2[C@@H]3CC[C@H]4CC(=O)/C(=C5\NC=Cc6nc[nH]c65)C(=O)[C@]4(C)[C@H]3CC[C@]12C | Dose-dependent effect | Dose-dependent effect | Dose-dependent effect | Dose-dependent effect | Dose-dependent effect | Dose-dependent effect
